Patent US10597388B2, “Pyridazinone herbicides” (FMC CORPORATION, priority 2014, dated 2020)

Experiments:
Experiment in all cases: Test C greenhouse herbicide test, pre- and postemergence
Format in all cases: in vivo
[1] = test system: velvetleaf (Abutilon theophrasti)
Outline: (§1)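 Seeds sown in loam–sand blend treated preemergence; plants in peat-based medium sprayed postemergence at 2–18 cm (1- to 4-leaf stage); chemicals in non-phytotoxic solvent with surfactant. Greenhouse 13–15 d, then visual rating versus controls on 0–100 scale (0 no effect, 100 complete control).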

[2] = test system: waterhemp (common waterhemp, Amaranthus rudis)
Outline: as §1

soybean (Glycine max) = test system: soybean (Glycine max)
Outline: as §1

[3] = test system: foxtail, giant (giant foxtail, Setaria faberii); details: Postemergence
Outline: as §1

[4] = test system: nutsedge, yellow (yellow nutsedge, Cyperus esculentus)
Outline: as §1

[5] = test system: wheat (winter wheat, Triticum aestivum)
Outline: as §1

[6] = test system: pigweed (Amaranthus retroflexus)
Outline: as §1

[7] = test system: barnyardgrass (Echinochloa crus-galli)
Outline: as §1

[8] = test system: lambsquarters (Chenopodium album)
Outline: as §1

[9] = test system: morningglory (Ipomoea coccinea)
Outline: as §1

[10] = test system: oilseed rape (Brassica napus)
Outline: as §1

[11] = test system: crabgrass, large (large crabgrass, Digitaria sanguinalis)
Outline: as §1

[12] = test system: galium (catchweed bedstraw, Galium aparine)
Outline: as §1

[13] = test system: johnsongrass (Sorghum halepense)
Outline: as §1

[14] = test system: ragweed (common ragweed, Ambrosia elatior)
Outline: as §1

[15] = test system: blackgrass (Alopecurus myosuroides)
Outline: as §1

[16] = Postemergence, 31 g ai/ha, scale 0 to 100 (0 no effect, 100 complete control)
[17] = Postemergence, 125 g ai/ha, scale 0 to 100, 0 is no effect, 100 is complete control
[18] = Postemergence, 250 g ai/ha, scale 0 to 100, 0 no effect, 100 complete control, 13 to 15 d
[19] = Preemergence, 31 g ai/ha, scale 0 to 100, 0 is no effect, 100 is complete control
[20] = Preemergence, 62 g ai/ha, scale 0 to 100, 0 is no effect, 100 is complete control
[21] = Preemergence, 125 g ai/ha, scale 0 to 100, 0 is no effect, 100 is complete control
[22] = Preemergence, 250 g ai/ha, scale 0 to 100 (0 no effect, 100 complete control)
[23] = 31 g ai/ha, scale 0 to 100 (0 no effect, 100 complete control)
[24] = 125 g ai/ha, scale 0 to 100, 0 is no effect, 100 is complete control
[25] = 250 g ai/ha, scale 0 to 100, 0 no effect, 100 complete control, 13 to 15 d
[26] = postemergence, 62 g ai/ha, scale 0 to 100, 0 no effect, 100 complete control

Cc1sc2ccc(Cl)cc2c1-c1c(OS(C)(=O)=O)c(Cl)nn(C)c1=O [Compound 114]
Plant response rating, Velvetleaf [1, 16]: 25 | Plant response rating, Velvetleaf [1, 17]: 55 | Plant response rating, Velvetleaf [1, 18]: 85 | Plant response rating, Velvetleaf [1, 19]: 45 | Plant response rating, Velvetleaf [1, 20]: 60 | Plant response rating, Velvetleaf [1, 21]: 85 | Velvetleaf plant response rating [1, 22]: 100 | Plant response rating, Waterhemp [2, 16]: 25 | Plant response rating, Waterhemp [2, 17]: 55 | Plant response rating, Waterhemp [2, 18]: 45 | Plant response rating, Waterhemp [2, 19]: 50 | Plant response rating, Waterhemp [2, 20]: 75 | Plant response rating, Waterhemp [2, 21]: 65 | Waterhemp plant response rating [2, 22]: 80 | Plant response rating, Soybean (soybean (Glycine max); [16]): 0 | Plant response rating, Soybean (soybean (Glycine max); [17]): 0 | Plant response rating, Soybean (soybean (Glycine max); [18]): 5 | Plant response rating, Soybean (soybean (Glycine max); [19]): 0 | Plant response rating, Soybean (soybean (Glycine max); [20]): 0 | Plant response rating, Soybean (soybean (Glycine max); [21]): 20 | Plant response rating, Foxtail, Giant [3, 23]: 10 | Plant response rating, Foxtail, Giant [3, 24]: 50 | Plant response rating, Foxtail, Giant [3, 25]: 85 | Plant response rating, Nutsedge, Yellow [4, 16]: 10 | Plant response rating, Nutsedge, Yellow [4, 17]: 25 | Plant response rating, Nutsedge, Yellow [4, 18]: 35 | Plant response rating, Nutsedge, Yellow [4, 19]: 10 | Plant response rating, Nutsedge, Yellow [4, 20]: 40 | Plant response rating, Nutsedge, Yellow [4, 21]: 65 | Nutsedge, Yellow plant response rating [4, 22]: 95 | Plant response rating, Wheat [5, 16]: 0 | Plant response rating, Wheat [5, 17]: 5 | Plant response rating, Wheat [5, 18]: 15 | Plant response rating, Wheat [5, 19]: 0 | Plant response rating, Wheat [5, 20]: 0 | Plant response rating, Wheat [5, 21]: 5 | Wheat plant response rating [5, 22]: 35 | Plant response rating, Pigweed [6, 16]: 80 | Plant response rating, Pigweed [6, 17]: 95 | Plant response rating, Pigweed [6, 18]: 95 | Plant response rating, Pigweed [6, 19]: 98 | Plant response rating, Pigweed [6, 20]: 90 | Plant response rating, Pigweed [6, 21]: 100 | Pigweed plant response rating [6, 22]: 100 | Plant response rating, Barnyardgrass [7, 16]: 30 | Plant response rating, Barnyardgrass [7, 17]: 40 | Plant response rating, Barnyardgrass [7, 18]: 40 | Plant response rating, Barnyardgrass [7, 19]: 5 | Plant response rating, Barnyardgrass [7, 20]: 10 | Plant response rating, Barnyardgrass [7, 21]: 60 | Barnyardgrass plant response rating [7, 22]: 95 | Barnyardgrass plant response rating [7, 26]: 35 | Plant response rating, Lambsquarters [8, 16]: 95 | Plant response rating, Lambsquarters [8, 17]: 100 | Plant response rating, Lambsquarters [8, 18]: 100 | Plant response rating, Lambsquarters [8, 19]: 90 | Plant response rating, Lambsquarters [8, 20]: 98 | Plant response rating, Lambsquarters [8, 21]: 90 | Lambsquarters plant response rating [8, 22]: 95 | Plant response rating, Morningglory [9, 16]: 95 | Plant response rating, Morningglory [9, 17]: 100 | Plant response rating, Morningglory [9, 18]: 100 | Plant response rating, Morningglory [9, 19]: 25 | Plant response rating, Morningglory [9, 20]: 55 | Plant response rating, Morningglory [9, 21]: 75 | Morningglory plant response rating [9, 22]: 90 | Plant response rating, Oilseed Rape [10, 16]: 15 | Plant response rating, Oilseed Rape [10, 17]: 40 | Plant response rating, Oilseed Rape [10, 18]: 80 | Plant response rating, Oilseed Rape [10, 19]: 30 | Plant response rating, Oilseed Rape [10, 20]: 98 | Plant response rating, Oilseed Rape [10, 21]: 100 | Oilseed Rape plant response rating [10, 22]: 100 | Plant response rating, Crabgrass, Large [11, 16]: 10 | Plant response rating, Crabgrass, Large [11, 17]: 20 | Plant response rating, Crabgrass, Large [11, 18]: 25 | Plant response rating, Crabgrass, Large [11, 19]: 0 | Plant response rating, Crabgrass, Large [11, 20]: 5 | Plant response rating, Crabgrass, Large [11, 21]: 75 | Crabgrass, Large plant response rating [11, 22]: 80 | Crabgrass, Large plant response rating [11, 26]: 20 | Plant response rating, Galium [12, 16]: 95 | Plant response rating, Galium [12, 17]: 95 | Plant response rating, Galium [12, 18]: 95 | Plant response rating, Galium [12, 19]: 98 | Plant response rating, Galium [12, 20]: 98 | Plant response rating, Galium [12, 21]: 100 | Galium plant response rating [12, 22]: 100 | Plant response rating, Johnsongrass [13, 16]: 5 | Plant response rating, Johnsongrass [13, 17]: 5 | Plant response rating, Johnsongrass [13, 18]: 15 | Plant response rating, Johnsongrass [13, 19]: 0 | Plant response rating, Johnsongrass [13, 20]: 0 | Plant response rating, Johnsongrass [13, 21]: 0 | Johnsongrass plant response rating [13, 22]: 0 | Plant response rating, Ragweed [14, 16]: 90 | Plant response rating, Ragweed [14, 17]: 98 | Plant response rating, Ragweed [14, 18]: 100 | Plant response rating, Ragweed [14, 19]: 55 | Plant response rating, Ragweed [14, 20]: 75 | Plant response rating, Ragweed [14, 21]: 95 | Ragweed plant response rating [14, 22]: 98 | Plant response rating, Blackgrass [15, 16]: 0 | Plant response rating, Blackgrass [15, 17]: 5 | Plant response rating, Blackgrass [15, 18]: 15 | Plant response rating, Blackgrass [15, 19]: 0 | Plant response rating, Blackgrass [15, 20]: 5 | Plant response rating, Blackgrass [15, 21]: 5 | Blackgrass plant response rating [15, 22]: 10 | Blackgrass plant response rating [15, 26]: 0

Cc1nn(C)c(=O)c(-c2cc(F)cc3ccccc23)c1OS(C)(=O)=O [Compound 115]
Plant response rating, Velvetleaf [1, 16]: 15 | Plant response rating, Velvetleaf [1, 17]: 70 | Plant response rating, Velvetleaf [1, 18]: 65 | Plant response rating, Waterhemp [2, 16]: 65 | Plant response rating, Waterhemp [2, 17]: 90 | Plant response rating, Waterhemp [2, 18]: 90 | Plant response rating, Soybean (soybean (Glycine max); [16]): 10 | Plant response rating, Soybean (soybean (Glycine max); [17]): 20 | Plant response rating, Soybean (soybean (Glycine max); [18]): 65 | Plant response rating, Foxtail, Giant [3, 23]: 5 | Plant response rating, Foxtail, Giant [3, 24]: 20 | Plant response rating, Foxtail, Giant [3, 25]: 35 | Plant response rating, Nutsedge, Yellow [4, 16]: 40 | Plant response rating, Nutsedge, Yellow [4, 17]: 65 | Plant response rating, Nutsedge, Yellow [4, 18]: 80 | Plant response rating, Wheat [5, 16]: 0 | Plant response rating, Wheat [5, 17]: 0 | Plant response rating, Wheat [5, 18]: 5 | Plant response rating, Pigweed [6, 16]: 30 | Plant response rating, Pigweed [6, 17]: 70 | Plant response rating, Pigweed [6, 18]: 90 | Plant response rating, Barnyardgrass [7, 16]: 10 | Plant response rating, Barnyardgrass [7, 17]: 35 | Plant response rating, Barnyardgrass [7, 18]: 45 | Barnyardgrass plant response rating [7, 26]: 20 | Plant response rating, Lambsquarters [8, 16]: 70 | Plant response rating, Lambsquarters [8, 17]: 90 | Plant response rating, Lambsquarters [8, 18]: 98 | Plant response rating, Morningglory [9, 16]: 55 | Plant response rating, Morningglory [9, 17]: 95 | Plant response rating, Morningglory [9, 18]: 100 | Plant response rating, Oilseed Rape [10, 16]: 0 | Plant response rating, Oilseed Rape [10, 17]: 0 | Plant response rating, Oilseed Rape [10, 18]: 0 | Plant response rating, Crabgrass, Large [11, 16]: 10 | Plant response rating, Crabgrass, Large [11, 17]: 20 | Plant response rating, Crabgrass, Large [11, 18]: 25 | Crabgrass, Large plant response rating [11, 26]: 20 | Plant response rating, Galium [12, 16]: 85 | Plant response rating, Galium [12, 17]: 95 | Plant response rating, Galium [12, 18]: 95 | Plant response rating, Johnsongrass [13, 16]: 5 | Plant response rating, Johnsongrass [13, 17]: 10 | Plant response rating, Johnsongrass [13, 18]: 20 | Plant response rating, Ragweed [14, 16]: 60 | Plant response rating, Ragweed [14, 17]: 95 | Plant response rating, Ragweed [14, 18]: 98 | Plant response rating, Blackgrass [15, 16]: 0 | Plant response rating, Blackgrass [15, 17]: 20 | Plant response rating, Blackgrass [15, 18]: 35 | Blackgrass plant response rating [15, 26]: 10
